Test results from ChEMBL document CHEMBL1146161, “Synthesis and anti-HIV properties of new hydroxyquinoline-polyamine conjugates on cells infected by HIV-1 LAV and HIV-1 BaL viral strains” (Bioorg Med Chem Lett, 2006).
The source made the active and inactive calls. The calls are words filed in the database; no cut-off is given here.

How the values were obtained:
[1] = system: Human immunodeficiency virus 1; test: Antiviral activity against HIV1 LAV in PBMC; assay type: functional, organism-based; conditions: for EC50: Human immunodeficiency virus 1, LAV
[2] = Cytotoxicity against PBMC; assay type: cell-based; conditions: human
[3] = system: Human immunodeficiency virus 1; test: Antiviral activity against HIV1 BaL in PBMC; assay type: functional, organism-based; conditions: for EC50: Human immunodeficiency virus 1, BaL

Row | EC50 [1] [µM] | EC50 [3] [µM] | SMILES | CC50 [2] [µM] | Activity [1] | Activity [3]
1 | 0.7 | 3.5 | Oc1ccc(CN2CCCNCCN(Cc3ccc(CN4CCCNCCNCCCNCC4)cc3)CCCNCC2)c2cccnc12 | > 10 | – | –
2 | – | – | Oc1ccc(CNCCCNCc2ccc(O)c3ncccc23)c2cccnc12 | > 10 | inactive | inactive
3 | 4.1 | 4.35 | Oc1ccc(CN2CCCNCCNCCCNCC2)c2cccnc12 | > 10 | – | –
4 | 1.5 | 1.25 | Oc1ccc(CN2CCCNCCCNCCNCCC2)c2cccnc12 | > 10 | – | –
5 | 0.05 | – | c1cc(CN2CCCNCCNCCCNCC2)cc(CN2CCCNCCNCCCNCC2)c1 | > 10 | – | inactive
6 | – | – | Oc1ccc(CN2CCN(Cc3ccc(O)c4ncccc34)CC2)c2cccnc12 | > 10 | inactive | inactive
7 | 0.47 | – | c1cc(CN2CCCNCCNCCCNCC2)ccc1CN1CCCNCCNCCCNCC1 [PLERIXAFOR] | > 10 | – | inactive
8 | – | – | Oc1c(I)cc(Cl)c2cccnc12 [CLIOQUINOL] | 2 | inactive | inactive
9 | 4.1 | – | Oc1ccc(CN2CCCN(Cc3ccc(O)c4ncccc34)CCNCCCNCC2)c2cccnc12 | 8 | – | Toxic
10 | 5.1 | – | Oc1ccc(CCl)c2cccnc12 | > 10 | – | inactive
11 | – | – | Oc1ccc(CNCc2ccc(CNCc3ccc(O)c4ncccc34)cc2)c2cccnc12 | > 10 | inactive | inactive
